Experimental data reported in ChEMBL document CHEMBL3046521, “Synthesis and antitumor activity of (4-hydroxyphenyl)[5-substituted alkyl/aryl)-2-thioxo-1,3,4-thiadiazol-3-yl]methanone and [(3,4-disubstituted)-1,3-thiazol-2ylidene]-4-hydroxybenzohydrazide” (2011).

Experiments:
Format in all cases: functional
SW-620 = test: Cytotoxicity against Homo sapiens (human) SW620 cells after 48 hr by sulforhodamine B assay; details: SW-620, 48 h
UACC-257 = test: Cytotoxicity against Homo sapiens (human) UACC257 cells after 48 hr by sulforhodamine B assay; details: UACC-257, 48 h
NCI-H460 = test: Cytotoxicity against Homo sapiens (human) NCI-H460 cells after 48 hr by sulforhodamine B assay; details: NCI-H460, 48 h
SN12C = test: Cytotoxicity against Homo sapiens (human) SN12C cells after 48 hr by sulforhodamine B assay
U-251 = test: Cytotoxicity against Homo sapiens (human) U251 cells after 48 hr by sulforhodamine B assay; details: U-251, 48 h
M14 = test: Cytotoxicity against Homo sapiens (human) M14 cells after 48 hr by sulforhodamine B assay; details: M14, 48 h
MDA-MB-435 = test: Cytotoxicity against Homo sapiens (human) MDA-MB-435 cells after 48 hr by sulforhodamine B assay; details: MDA-MB-435, 48 h
SK-MEL-5 [1] = test: Cytotoxicity against Homo sapiens (human) SK-MEL-5 cells after 48 hr by sulforhodamine B assay; details: SK-MEL-5, 48 h
DU-145 = test: Cytotoxicity against Homo sapiens (human) DU145 cells after 48 hr by sulforhodamine B assay; details: DU-145, 48 h
EKVX = test: Cytotoxicity against Homo sapiens (human) EKVX cells after 48 hr by sulforhodamine B assay
SR = test: Cytotoxicity against Homo sapiens (human) SR cells after 48 hr by sulforhodamine B assay
[2] = Cytotoxicity against Homo sapiens (human) […] cells after 48 hr by sulforhodamine B assay
SK-MEL-5 [3] = test: Anticancer activity in Homo sapiens (human) SK-MEL-5 cells assessed as cell growth at 10^-5 M after 48 hr by SRB assay; details: SK-MEL-5, 48 h, read-out: Activity
HOP-92 = test: Cytotoxicity against Homo sapiens (human) HOP92 cells after 48 hr by sulforhodamine B assay; details: HOP-92, 48 h
A549 = test: Cytotoxicity against Homo sapiens (human) A549 cells after 48 hr by sulforhodamine B assay; details: A549, 48 h
NCI-H322M = test: Cytotoxicity against Homo sapiens (human) NCI-H322M cells after 48 hr by sulforhodamine B assay
SNB-75 = test: Cytotoxicity against Homo sapiens (human) SNB75 cells after 48 hr by sulforhodamine B assay; details: SNB-75, 48 h
COLO 205 = test: Cytotoxicity against Homo sapiens (human) COLO205 cells after 48 hr by sulforhodamine B assay; details: COLO 205, 48 h
RXF 393 = test: Cytotoxicity against Homo sapiens (human) RXF393 cells after 48 hr by sulforhodamine B assay; details: RXF 393, 48 h
NCI-H522 = test: Cytotoxicity against Homo sapiens (human) NCI-H522 cells after 48 hr by sulforhodamine B assay; details: NCI-H522, 48 h
OVCAR-4 = test: Cytotoxicity against Homo sapiens (human) OVCAR4 cells after 48 hr by sulforhodamine B assay; details: OVCAR-4, 48 h
BT-549 = test: Cytotoxicity against Homo sapiens (human) BT549 cells after 48 hr by sulforhodamine B assay; details: BT-549, 48 h
Malme-3M = test: Cytotoxicity against Homo sapiens (human) MALME-3M cells after 48 hr by sulforhodamine B assay
T47D = test: Cytotoxicity against Homo sapiens (human) T47D cells after 48 hr by sulforhodamine B assay
PC-3 = test: Cytotoxicity against Homo sapiens (human) PC3 cells after 48 hr by sulforhodamine B assay; details: PC-3, 48 h
IGROV-1 = test: Cytotoxicity against Homo sapiens (human) IGROV1 cells after 48 hr by sulforhodamine B assay; details: IGROV-1, 48 h
NCI-H23 = test: Cytotoxicity against Homo sapiens (human) NCI-H23 cells after 48 hr by sulforhodamine B assay; details: NCI-H23, 48 h
UACC-62 = test: Cytotoxicity against Homo sapiens (human) UACC62 cells after 48 hr by sulforhodamine B assay; details: UACC-62, 48 h
HL-60(TB) = test: Cytotoxicity against Homo sapiens (human) HL-60(TB) cells after 48 hr by sulforhodamine B assay; details: HL-60, 48 h

Cc1ccc(-c2cs/c(=N\NC(=O)c3ccc(O)cc3)n2-c2c(C)cccc2C)cc1
GI50 (SW-620): 28.8 µM
LC50 (SW-620): > 100 µM
TGI (SW-620; read-out: pTGI (converted)): > 100 µM
GI50 (UACC-257): 42.7 µM
LC50 (UACC-257): > 100 µM
TGI (UACC-257; read-out: pTGI (converted)): > 100 µM
GI50 (NCI-H460): 14.8 µM
LC50 (NCI-H460): > 100 µM
TGI (NCI-H460; read-out: pTGI (converted)): 72.4 µM
GI50 (SN12C): 25.7 µM
LC50 (SN12C): > 100 µM
TGI (SN12C; read-out: pTGI (converted)): > 100 µM
GI50 (U-251): 25.1 µM
LC50 (U-251): > 100 µM
TGI (U-251; read-out: pTGI (converted)): > 100 µM
GI50 (M14): 21.4 µM
LC50 (M14): > 100 µM
TGI (M14; read-out: pTGI (converted)): 72.4 µM
GI50 (MDA-MB-435): 16.6 µM
LC50 (MDA-MB-435): > 100 µM
TGI (MDA-MB-435; read-out: pTGI (converted)): 85.1 µM
GI50 (SK-MEL-5 [1]): 14.5 µM
LC50 (SK-MEL-5 [1]): 61.7 µM
TGI (SK-MEL-5 [1]; read-out: pTGI (converted)): 30.2 µM
GI50 (DU-145): 28.2 µM
LC50 (DU-145): > 100 µM
TGI (DU-145; read-out: pTGI (converted)): > 100 µM
GI50 (EKVX): 25.1 µM
LC50 (EKVX): > 100 µM
TGI (EKVX; read-out: pTGI (converted)): > 100 µM
GI50 (SR): 16.2 µM
LC50 (SR): > 100 µM
TGI (SR; read-out: pTGI): > 100 µM
GI50 [2]: 20 µM
LC50 [2]: > 100 µM
TGI ([2]; read-out: pTGI (converted)): > 100 µM
growth at 10 µM (SK-MEL-5 [3]): 5.18%
GI50 (HOP-92): 1.32 µM
LC50 (HOP-92): > 100 µM
TGI (HOP-92; read-out: pTGI (converted)): 26.3 µM
GI50 (A549): 23.4 µM
LC50 (A549): > 100 µM
TGI (A549; read-out: pTGI (converted)): > 100 µM
GI50 (NCI-H322M): 35.5 µM
LC50 (NCI-H322M): > 100 µM
TGI (NCI-H322M; read-out: pTGI (converted)): > 100 µM
GI50 (SNB-75): 24.5 µM
LC50 (SNB-75): > 100 µM
TGI (SNB-75; read-out: pTGI (converted)): > 100 µM
GI50 (COLO 205): 16.6 µM
LC50 (COLO 205): > 100 µM
TGI (COLO 205; read-out: pTGI (converted)): 66.1 µM
GI50 (RXF 393): 38 µM
LC50 (RXF 393): > 100 µM
TGI (RXF 393; read-out: pTGI (converted)): > 100 µM
GI50 (NCI-H522): 20.9 µM
LC50 (NCI-H522): > 100 µM
TGI (NCI-H522; read-out: pTGI (converted)): > 100 µM
GI50 (OVCAR-4): 18.6 µM
LC50 (OVCAR-4): > 100 µM
TGI (OVCAR-4; read-out: pTGI (converted)): > 100 µM
GI50 (BT-549): 21.9 µM
LC50 (BT-549): > 100 µM
TGI (BT-549; read-out: pTGI (converted)): > 100 µM
GI50 (Malme-3M): 22.4 µM
LC50 (Malme-3M): > 100 µM
TGI (Malme-3M; read-out: pTGI (converted)): 85.1 µM
GI50 (T47D): 12.9 µM
LC50 (T47D): > 100 µM
TGI (T47D; read-out: pTGI (converted)): 63.1 µM
GI50 (PC-3): 11 µM
LC50 (PC-3): > 100 µM
TGI (PC-3; read-out: pTGI (converted)): 91.2 µM
GI50 (IGROV-1): 20 µM
LC50 (IGROV-1): > 100 µM
TGI (IGROV-1; read-out: pTGI (converted)): > 100 µM
GI50 (NCI-H23): 25.7 µM
LC50 (NCI-H23): > 100 µM
TGI (NCI-H23; read-out: pTGI (converted)): > 100 µM
GI50 (UACC-62): 16.6 µM
LC50 (UACC-62): > 100 µM
TGI (UACC-62; read-out: pTGI (converted)): 95.5 µM
GI50 (HL-60(TB)): 11.5 µM
CC50 (HL-60(TB); read-out: pLC50 (the source's name) (converted)): > 100 µM
TGI (HL-60(TB); read-out: pTGI (converted)): 64.6 µM
